Test results reported in the kinase profiling compilation of Christmann-Franck et al. (2016).

How the values were obtained:
Experiment in all cases: radiometric filter-binding kinase assay, Kinaseprofiler
DAPK3 (human) = DAPK3 (human) (UniProt O43293); conditions: ATP 15 µM
RET (human) = RET (human) (UniProt P07949); conditions: ATP 70 µM
GCK (human) = GCK (human) (UniProt Q12851); conditions: ATP 200 µM
PKN2 (human) = PKN2 (human) (UniProt Q16513); conditions: ATP 15 µM
MST1R (human) = MST1R (human) (UniProt Q04912); conditions: ATP 70 µM
MST1R (human), sequence (Q04912 whole entry, looked up): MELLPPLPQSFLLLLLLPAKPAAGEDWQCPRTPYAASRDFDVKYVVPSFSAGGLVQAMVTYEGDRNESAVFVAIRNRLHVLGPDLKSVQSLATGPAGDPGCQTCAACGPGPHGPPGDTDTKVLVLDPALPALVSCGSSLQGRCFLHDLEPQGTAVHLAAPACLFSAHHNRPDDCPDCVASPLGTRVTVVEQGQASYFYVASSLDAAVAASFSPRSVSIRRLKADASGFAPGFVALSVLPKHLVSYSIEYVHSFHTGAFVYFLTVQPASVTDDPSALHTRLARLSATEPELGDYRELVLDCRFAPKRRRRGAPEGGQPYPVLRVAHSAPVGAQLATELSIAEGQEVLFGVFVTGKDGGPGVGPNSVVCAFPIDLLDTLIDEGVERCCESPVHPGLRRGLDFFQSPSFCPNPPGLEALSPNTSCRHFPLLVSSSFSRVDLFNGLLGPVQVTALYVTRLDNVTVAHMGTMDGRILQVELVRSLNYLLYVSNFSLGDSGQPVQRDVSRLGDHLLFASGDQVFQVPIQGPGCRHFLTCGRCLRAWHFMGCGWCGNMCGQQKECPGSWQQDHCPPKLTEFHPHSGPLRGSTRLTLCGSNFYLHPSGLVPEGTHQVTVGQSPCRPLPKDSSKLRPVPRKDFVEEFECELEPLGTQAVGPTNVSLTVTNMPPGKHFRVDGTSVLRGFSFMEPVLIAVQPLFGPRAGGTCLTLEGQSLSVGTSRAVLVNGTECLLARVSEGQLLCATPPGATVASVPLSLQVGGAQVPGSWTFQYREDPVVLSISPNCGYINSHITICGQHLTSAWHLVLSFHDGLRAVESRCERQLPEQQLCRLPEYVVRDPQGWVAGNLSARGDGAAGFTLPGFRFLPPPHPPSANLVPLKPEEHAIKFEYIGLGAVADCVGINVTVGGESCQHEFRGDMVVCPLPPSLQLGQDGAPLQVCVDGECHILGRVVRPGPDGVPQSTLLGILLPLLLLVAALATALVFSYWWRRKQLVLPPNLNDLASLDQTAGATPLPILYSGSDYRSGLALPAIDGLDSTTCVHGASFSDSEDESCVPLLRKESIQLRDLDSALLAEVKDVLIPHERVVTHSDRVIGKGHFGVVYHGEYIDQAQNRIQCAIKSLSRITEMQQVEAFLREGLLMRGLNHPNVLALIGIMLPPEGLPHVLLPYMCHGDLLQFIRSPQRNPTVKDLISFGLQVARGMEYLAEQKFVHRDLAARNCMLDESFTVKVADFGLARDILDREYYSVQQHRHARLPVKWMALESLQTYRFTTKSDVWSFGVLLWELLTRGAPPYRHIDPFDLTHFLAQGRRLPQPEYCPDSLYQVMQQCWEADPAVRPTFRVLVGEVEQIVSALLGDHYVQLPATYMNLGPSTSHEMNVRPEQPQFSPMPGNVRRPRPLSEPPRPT

RPS6KA6 KD1 KD2 (human) = RPS6KA6 KD1 KD2 (human) (UniProt Q9UK32); conditions: ATP 45 µM
ABL2 (human) = ABL2 (human) (UniProt P42684); conditions: ATP 45 µM
TSSK2 (human) = TSSK2 (human) (UniProt Q96PF2); conditions: ATP 15 µM
MINK1 (human) = MINK1 (human) (UniProt Q8N4C8); conditions: ATP 185 µM
EPHA8 (human) = EPHA8 (human) (UniProt P29322); conditions: ATP 200 µM
EPHA8 (human), sequence (P29322 whole entry, looked up): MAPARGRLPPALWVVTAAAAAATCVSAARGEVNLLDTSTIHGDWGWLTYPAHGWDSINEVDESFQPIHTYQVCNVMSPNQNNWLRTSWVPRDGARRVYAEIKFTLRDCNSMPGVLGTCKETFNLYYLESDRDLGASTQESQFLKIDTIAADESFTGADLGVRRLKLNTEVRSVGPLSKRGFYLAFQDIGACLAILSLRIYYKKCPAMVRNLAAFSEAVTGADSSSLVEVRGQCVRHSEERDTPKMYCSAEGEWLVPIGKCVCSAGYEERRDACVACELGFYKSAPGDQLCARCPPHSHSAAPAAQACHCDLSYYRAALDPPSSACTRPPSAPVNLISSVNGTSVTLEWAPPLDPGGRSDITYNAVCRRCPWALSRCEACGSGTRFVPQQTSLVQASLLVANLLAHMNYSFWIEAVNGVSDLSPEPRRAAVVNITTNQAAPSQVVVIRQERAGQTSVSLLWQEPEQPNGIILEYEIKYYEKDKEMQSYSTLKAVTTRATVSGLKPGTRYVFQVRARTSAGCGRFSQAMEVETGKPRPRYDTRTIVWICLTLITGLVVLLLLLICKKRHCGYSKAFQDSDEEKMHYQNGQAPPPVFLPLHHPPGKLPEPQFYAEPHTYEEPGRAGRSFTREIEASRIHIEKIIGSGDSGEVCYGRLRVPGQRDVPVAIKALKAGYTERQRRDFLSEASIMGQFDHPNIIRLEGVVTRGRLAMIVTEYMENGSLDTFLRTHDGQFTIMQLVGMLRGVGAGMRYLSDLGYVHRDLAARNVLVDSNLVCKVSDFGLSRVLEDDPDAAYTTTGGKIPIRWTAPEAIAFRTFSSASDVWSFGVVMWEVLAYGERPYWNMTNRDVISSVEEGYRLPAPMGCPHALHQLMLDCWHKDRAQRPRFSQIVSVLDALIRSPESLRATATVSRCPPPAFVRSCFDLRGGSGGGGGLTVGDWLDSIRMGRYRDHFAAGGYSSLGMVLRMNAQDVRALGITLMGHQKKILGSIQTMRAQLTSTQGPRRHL

CSNK2A2 (human) = CSNK2A2 (human) (UniProt P19784); conditions: ATP 10 µM
ALK (human) = ALK (human) (UniProt Q9UM73); conditions: ATP 200 µM
SRPK1 (human) = SRPK1 (human) (UniProt Q96SB4); conditions: ATP 10 µM
MAP2K6 (human) = MAP2K6 (human) (UniProt P52564); conditions: ATP 10 µM
DCLK2 (human) = DCLK2 (human) (UniProt Q8N568); conditions: ATP 90 µM
MAPK14 (human) = MAPK14 (human) (UniProt Q16539); conditions: ATP 90 µM
ZAP70 (human) = ZAP70 (human) (UniProt P43403); conditions: ATP 15 µM
FES (human) = FES (human) (UniProt P07332); conditions: ATP 45 µM
CSNK1G2 (human) = CSNK1G2 (human) (UniProt P78368); conditions: ATP 10 µM
MAP2K1 (human) = MAP2K1 (human) (UniProt Q02750); conditions: ATP 10 µM
CLK2 (human) = CLK2 (human) (UniProt P49760); conditions: ATP 15 µM
PASK (human) = PASK (human) (UniProt Q96RG2); conditions: ATP 15 µM
ERBB4 (human) = ERBB4 (human) (UniProt Q15303); conditions: ATP 15 µM
FGFR2 (human) = FGFR2 (human) (UniProt P21802); conditions: ATP 90 µM
FGFR2 (human), sequence (P21802 whole entry, looked up): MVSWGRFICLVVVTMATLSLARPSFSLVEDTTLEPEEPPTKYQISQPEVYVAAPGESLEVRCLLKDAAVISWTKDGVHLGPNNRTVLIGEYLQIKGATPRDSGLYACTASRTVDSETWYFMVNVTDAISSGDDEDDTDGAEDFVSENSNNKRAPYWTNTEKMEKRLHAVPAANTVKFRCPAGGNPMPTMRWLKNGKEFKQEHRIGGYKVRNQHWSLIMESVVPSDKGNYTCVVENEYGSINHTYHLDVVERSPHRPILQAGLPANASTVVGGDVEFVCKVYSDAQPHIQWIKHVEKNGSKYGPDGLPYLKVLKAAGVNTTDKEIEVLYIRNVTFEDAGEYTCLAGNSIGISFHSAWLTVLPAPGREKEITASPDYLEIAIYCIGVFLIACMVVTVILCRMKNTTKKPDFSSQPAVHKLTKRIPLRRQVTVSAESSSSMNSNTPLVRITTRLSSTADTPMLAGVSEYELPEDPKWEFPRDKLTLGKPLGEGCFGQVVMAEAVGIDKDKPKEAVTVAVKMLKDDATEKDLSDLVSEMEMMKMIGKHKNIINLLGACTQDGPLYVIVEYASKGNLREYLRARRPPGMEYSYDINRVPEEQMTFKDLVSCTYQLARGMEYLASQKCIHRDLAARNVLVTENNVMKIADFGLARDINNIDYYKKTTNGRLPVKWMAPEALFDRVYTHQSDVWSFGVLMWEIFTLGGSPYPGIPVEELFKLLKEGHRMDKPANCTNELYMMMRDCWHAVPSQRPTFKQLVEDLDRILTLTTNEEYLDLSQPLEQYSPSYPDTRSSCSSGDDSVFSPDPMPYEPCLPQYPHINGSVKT

MYLK (human) = MYLK (human) (UniProt Q15746); conditions: ATP 70 µM
PLK3 (human) = PLK3 (human) (UniProt Q9H4B4); conditions: ATP 70 µM
PLK3 (human), sequence (Q9H4B4 whole entry, looked up): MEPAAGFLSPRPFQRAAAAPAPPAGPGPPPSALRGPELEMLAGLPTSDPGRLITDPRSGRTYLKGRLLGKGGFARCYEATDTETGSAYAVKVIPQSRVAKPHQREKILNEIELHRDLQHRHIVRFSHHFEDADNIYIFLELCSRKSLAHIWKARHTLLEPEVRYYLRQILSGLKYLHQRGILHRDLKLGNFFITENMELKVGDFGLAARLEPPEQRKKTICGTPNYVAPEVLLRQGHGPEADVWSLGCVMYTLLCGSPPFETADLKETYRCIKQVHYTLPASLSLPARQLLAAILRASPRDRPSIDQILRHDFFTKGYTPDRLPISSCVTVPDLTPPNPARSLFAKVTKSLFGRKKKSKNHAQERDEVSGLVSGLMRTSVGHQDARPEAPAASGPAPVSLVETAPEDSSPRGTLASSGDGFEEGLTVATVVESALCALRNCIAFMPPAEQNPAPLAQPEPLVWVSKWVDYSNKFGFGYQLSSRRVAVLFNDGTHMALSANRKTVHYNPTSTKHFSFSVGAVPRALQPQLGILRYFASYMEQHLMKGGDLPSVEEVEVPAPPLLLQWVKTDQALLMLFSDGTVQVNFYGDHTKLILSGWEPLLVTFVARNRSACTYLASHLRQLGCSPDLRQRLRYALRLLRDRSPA

FLT1 (human) = FLT1 (human) (UniProt P17948); conditions: ATP 200 µM

PKN2 (human), sequence (Q16513 whole entry, looked up): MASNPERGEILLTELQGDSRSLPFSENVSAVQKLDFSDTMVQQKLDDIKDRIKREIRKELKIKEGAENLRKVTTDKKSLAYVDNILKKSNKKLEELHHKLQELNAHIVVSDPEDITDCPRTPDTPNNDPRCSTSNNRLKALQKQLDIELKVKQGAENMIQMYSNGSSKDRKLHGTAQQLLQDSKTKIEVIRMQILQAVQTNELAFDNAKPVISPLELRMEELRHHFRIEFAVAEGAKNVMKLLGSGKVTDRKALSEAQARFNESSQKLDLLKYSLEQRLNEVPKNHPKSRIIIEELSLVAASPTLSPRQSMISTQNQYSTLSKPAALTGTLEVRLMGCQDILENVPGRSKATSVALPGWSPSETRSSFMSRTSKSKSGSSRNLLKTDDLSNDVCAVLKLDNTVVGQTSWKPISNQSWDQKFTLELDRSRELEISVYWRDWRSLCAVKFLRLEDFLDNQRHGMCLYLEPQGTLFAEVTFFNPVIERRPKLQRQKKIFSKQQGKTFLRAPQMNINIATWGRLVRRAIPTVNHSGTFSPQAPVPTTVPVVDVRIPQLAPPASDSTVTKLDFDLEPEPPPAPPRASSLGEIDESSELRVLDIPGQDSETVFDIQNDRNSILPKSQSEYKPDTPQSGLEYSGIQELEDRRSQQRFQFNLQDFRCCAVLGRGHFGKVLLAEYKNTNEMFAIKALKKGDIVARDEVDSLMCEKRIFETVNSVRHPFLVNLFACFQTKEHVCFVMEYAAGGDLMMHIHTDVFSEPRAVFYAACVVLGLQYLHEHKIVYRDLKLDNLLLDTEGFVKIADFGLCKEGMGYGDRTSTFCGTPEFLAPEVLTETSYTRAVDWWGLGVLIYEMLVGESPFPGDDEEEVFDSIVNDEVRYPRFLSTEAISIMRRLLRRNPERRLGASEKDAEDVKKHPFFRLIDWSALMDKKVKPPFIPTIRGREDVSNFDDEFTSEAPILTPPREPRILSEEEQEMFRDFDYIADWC

residual activity (DAPK3 (human); compound 1.0 µM): 87%
residual activity (DAPK3 (human); compound 10.0 µM): 45%
residual activity (RET (human); compound 1.0 µM): 43%
residual activity (RET (human); compound 10.0 µM): 11%
residual activity (GCK (human); compound 1.0 µM): 16%
residual activity (GCK (human); compound 10.0 µM): 2%
residual activity (PKN2 (human); compound 1.0 µM): 74%
residual activity (PKN2 (human); compound 10.0 µM): 32%
residual activity (MST1R (human); compound 1.0 µM): 78%
residual activity (MST1R (human); compound 10.0 µM): 51%
residual activity (RPS6KA6 KD1 KD2 (human); compound 1.0 µM): 43%
residual activity (RPS6KA6 KD1 KD2 (human); compound 10.0 µM): 52%
residual activity (ABL2 (human); compound 1.0 µM): 87%
residual activity (ABL2 (human); compound 10.0 µM): 72%
residual activity (TSSK2 (human); compound 1.0 µM): 92%
residual activity (TSSK2 (human); compound 10.0 µM): 86%
residual activity (MINK1 (human); compound 1.0 µM): 86%
residual activity (MINK1 (human); compound 10.0 µM): 50%
residual activity (EPHA8 (human); compound 1.0 µM): 92%
residual activity (EPHA8 (human); compound 10.0 µM): 76%
residual activity (CSNK2A2 (human); compound 1.0 µM): 59%
residual activity (CSNK2A2 (human); compound 10.0 µM): 18%
residual activity (ALK (human); compound 1.0 µM): 61%
residual activity (ALK (human); compound 10.0 µM): 29%
residual activity (SRPK1 (human); compound 1.0 µM): 98%
residual activity (SRPK1 (human); compound 10.0 µM): 87%
residual activity (MAP2K6 (human); compound 1.0 µM): 82%
residual activity (MAP2K6 (human); compound 10.0 µM): 13%
residual activity (DCLK2 (human); compound 1.0 µM): 116%
residual activity (DCLK2 (human); compound 10.0 µM): 51%
residual activity (MAPK14 (human); compound 1.0 µM): 96%
residual activity (MAPK14 (human); compound 10.0 µM): 85%
residual activity (ZAP70 (human); compound 1.0 µM): 94%
residual activity (ZAP70 (human); compound 10.0 µM): 98%
residual activity (FES (human); compound 1.0 µM): 34%
residual activity (FES (human); compound 10.0 µM): 6%
residual activity (CSNK1G2 (human); compound 1.0 µM): 70%
residual activity (CSNK1G2 (human); compound 10.0 µM): 6%
residual activity (MAP2K1 (human); compound 1.0 µM): 75%
residual activity (MAP2K1 (human); compound 10.0 µM): 50%
residual activity (CLK2 (human); compound 1.0 µM): 36%
residual activity (CLK2 (human); compound 10.0 µM): 21%
residual activity (PASK (human); compound 1.0 µM): 125%
residual activity (PASK (human); compound 10.0 µM): 81%
residual activity (ERBB4 (human); compound 1.0 µM): 104%
residual activity (ERBB4 (human); compound 10.0 µM): 97%
residual activity (FGFR2 (human); compound 1.0 µM): 52%
residual activity (FGFR2 (human); compound 10.0 µM): 12%
residual activity (MYLK (human); compound 1.0 µM): 29%
residual activity (MYLK (human); compound 10.0 µM): 3%
residual activity (PLK3 (human); compound 1.0 µM): 94%
residual activity (PLK3 (human); compound 10.0 µM): 82%
residual activity (FLT1 (human); compound 1.0 µM): 26%
residual activity (FLT1 (human); compound 10.0 µM): 2%
SMILES: O=C1c2ccccc2-c2n[nH]c3cccc1c23
